Measured values: PubChem BioAssay (NCI)
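Cultured in 96-well plates, cells were exposed to test compound for 48 hours across five concentrations. GI50 is the concentration that inhibits growth by half. TGI: concentration producing complete growth inhibition.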

Key:
Test in all cases: inhibition of tumour cell growth, NCI panel, 48 h
A549 NSCLC = system: A549 NSCLC
NCI-H522 lung = system: NCI-H522 lung
KM12 colon = system: KM12 colon
COLO 205 colon = system: COLO 205 colon
SNB-75 CNS = system: SNB-75 CNS
SK-MEL-2 melanoma = system: SK-MEL-2 melanoma
OVCAR-4 ovarian = system: OVCAR-4 ovarian
CAKI-1 renal = system: CAKI-1 renal
BT-549 breast = system: BT-549 breast
HS 578T breast = system: HS 578T breast

Structure (SMILES) | TGI (A549 NSCLC) [µM] | TGI (NCI-H522 lung) [µM] | TGI (KM12 colon) [µM] | TGI (COLO 205 colon) [µM] | TGI (SNB-75 CNS) [µM] | TGI (SK-MEL-2 melanoma) [µM] | TGI (OVCAR-4 ovarian) [µM] | TGI (CAKI-1 renal) [µM] | GI50 (A549 NSCLC) [µM] | GI50 (OVCAR-4 ovarian) [µM] | GI50 (NCI-H522 lung) [µM] | GI50 (KM12 colon) [µM] | GI50 (COLO 205 colon) [µM] | GI50 (SNB-75 CNS) [µM] | GI50 (SK-MEL-2 melanoma) [µM] | GI50 (CAKI-1 renal) [µM] | GI50 (BT-549 breast) [µM] | TGI (BT-549 breast) [µM] | GI50 (HS 578T breast) [µM] | TGI (HS 578T breast) [µM]
O=S(=O)(NCn1ccc2ccccc21)c1ccccc1 | > 100 | > 100 | > 100 | > 100 | > 100 | > 100 |  |  |  |  |  |  |  |  |  |  |  |  |  | 
O=C(O)CCNCCCCNCCC(=O)O | > 100 | > 100 | > 100 | > 100 | > 100 | > 100 | > 100 | > 100 |  |  |  |  |  |  |  |  |  |  |  | 
C=CCO/N=C(\OC(=O)c1ccc([N+](=O)[O-])cc1)c1ccccc1 | > 100 |  | > 100 | > 100 | > 100 | > 100 | > 100 | > 100 |  |  |  |  |  |  |  |  |  |  |  | 
C=CCC1=C(C)C[C@@H]2CCC(=O)C=C12 | > 100 | > 100 | > 100 | > 100 | > 100 | > 100 | > 100 | > 100 |  |  |  |  |  |  |  |  |  |  |  | 
CC1CCSC(N(C(=O)N(C)c2ccccc2)c2ccccc2)=N1 (stereo not drawn) | > 100 | > 100 | > 100 | > 100 | > 100 | > 100 |  | > 100 |  |  |  |  |  |  |  |  |  |  |  | 
N.N.N.N.N.O=[N+]([O-])[O-].[Co+3].[O-][Cl+3]([O-])([O-])[O-] | > 100 | > 100 | > 100 | > 100 | > 100 | > 100 | > 100 |  | > 100 | > 100 | > 100 | > 100 | > 100 | 29.6 | > 100 |  |  |  |  | 
COc1ccc(C(=O)NNc2nc(Cl)nc(N3CCN(C(c4ccccc4)c4ccccc4)CC3)n2)cc1 | 39.1 |  | > 100 | 13.4 | 3.49 | 4.91 | 3.56 | 3.48 | 17.9 | 1.81 |  | > 100 | 3.21 | 1.65 | 2.14 | 1.84 | 1.74 | 3.47 | 1.95 | 4.76
CC(C)CCCC(C)[C@H]1CCC2[C@@H]3CCC4Nc5c(cnn5-c5ccccc5)C[C@]4(C)C3CC[C@@]21C (stereo partly drawn) | > 100 | > 100 | > 100 | 42 | 25.7 | > 100 | 80.1 | 78.4 |  |  |  |  |  |  |  |  |  |  |  | 
COc1ccc(CCn2c(=O)c3ccccc3n(C)c2=O)cc1 | > 100 | 95.2 | > 100 | 50.1 | > 100 | 85.6 | > 100 | > 100 |  |  |  |  |  |  |  |  |  |  |  | 
CCOC(=O)N1CCc2cc(OC)c(OC)cc2/C1=C\c1ccc(OC)c(OC)c1 | 80.5 | 77.6 | 85.6 | 59.9 | 79.3 | 67.6 |  |  |  |  |  |  |  |  |  |  |  |  |  | 
Cc1cc(N=C2C=C(Br)C(=O)C(Br)=C2)cc(CN(CC(=O)O)CC(=O)O)c1O | > 100 | > 100 |  | > 100 | > 100 | > 100 | > 100 | > 100 |  |  |  |  |  |  |  |  |  |  |  | > 100
C1=C2CCCC3=Cc4ccccc4OC23Oc2ccccc21 | > 100 | 6.2 | 56.7 | 5.04 | 5.84 | 25.6 | > 100 | > 100 | 5.87 | 6.12 | 2.3 | 3.61 | 2.24 | 1.64 | 4.31 | 3.71 | 3.73 | 73.7 |  | 
NNC(=O)C(=O)N/N=C1\CCC(=O)CC1C(=O)CCC(=O)Nc1ccc(Cl)cc1 (stereo not drawn) | > 100 |  | > 100 | > 100 | > 100 | > 100 | > 100 | > 100 |  |  |  |  |  |  |  |  |  |  |  | 
COC(=O)CC(NC(=O)OCc1ccccc1)C(C(=O)OCc1ccccc1)C(C)(OC)OC (stereo not drawn) | 85.1 |  |  | 34.1 | 64 | 36.5 | > 100 |  |  |  |  |  |  |  |  |  |  |  |  | 
COc1ccc(C(=O)C(CC2C(=O)NC(=O)NC2=O)c2ccc(OC)cc2)cc1 (stereo not drawn) | > 100 | > 100 | > 100 | > 100 | > 100 | > 100 | > 100 | > 100 |  |  |  |  |  |  |  |  |  |  |  | 
CC(=O)O[C@]1(C)OC(=O)[C@@H](CC(C)C)N1[N+](=O)[O-] | > 100 | > 100 | > 100 | > 100 | > 100 | > 100 | > 100 |  |  |  |  |  |  |  |  |  |  |  |  | 
